In US20150105252A1, “SUBSTITUTED PYRAZOLES AS HERBICIDES” (E I DU PONT DE NEMOURS AND COMPANY, priority 2013, published 2015):

Tests used:
[1] = system: pigweed; experiment: Test A preemergence; type: in vivo, Amaranthus retroflexus; conditions: preemergence, 125 g ai/ha, visual injury approx. 10 days after treatment
Outline: (§1)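 Injury readout: eye-scored versus untreated controls, 0 to 100. Exposure period: ~10 days, greenhouse. Application: soil-directed spray over sown seed (pre) or spray on seedlings 2–10 cm tall with one or two leaves (post), compound carried in non-phytotoxic solvent including surfactant.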

[2] = system: sedge, umbrella; experiment: Test B flood; type: in vivo, Cyperus difformis; conditions: 250 g ai/ha, visual rating on 0 to 100 scale (0 no effect, 100 complete control), 13 to 15 days
Outline: (§2)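 Greenhouse assay lasting 13 to 15 days. Treatment was into water flooding pots 3 cm deep, at the 2-leaf stage, with that level sustained afterwards. Scores compare treated with control plants visually, 100 denoting complete control and 0 no effect; a dash marks no test result.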

[3] = system: kochia; experiment: Test A postemergence; type: in vivo, Kochia scoparia; conditions: Postemergence
Outline: as §1

[4] = system: Italian ryegrass; experiment: Test A preemergence; type: in vivo, Lolium multiflorum; conditions: for Italian Ryegrass plant response rating (0 to 100 scale): 125 g ai/ha, visual injury approx. 10 days after treatment; for Italian Ryegrass plant response rating: 500 g ai/ha, visual injury after approx. 10 days, 0 to 100 scale (0 no effect, 100 complete control)
Outline: as §1

[5] = system: foxtail, giant; experiment: Test A preemergence; type: in vivo, Setaria faberii; conditions: preemergence; for Foxtail, Giant plant response rating (0 to 100 scale): 125 g ai/ha, visual injury approx. 10 days after treatment; for Foxtail, Giant plant response rating: 500 g ai/ha, visual injury after approx. 10 days, 0 to 100 scale (0 no effect, 100 complete control)
Outline: as §1

[6] = system: common ragweed; experiment: Test A preemergence; type: in vivo, Ambrosia elation; conditions: for Common Ragweed plant response rating (0 to 100 scale): 125 g ai/ha, visual injury approx. 10 days after treatment; for Common Ragweed plant response rating: 500 g ai/ha, visual injury after approx. 10 days, 0 to 100 scale (0 no effect, 100 complete control)
Outline: as §1

[7] = system: Italian ryegrass; experiment: Test A postemergence; type: in vivo, Lolium multiflorum; conditions: Postemergence
Outline: as §1

[8] = system: pigweed; experiment: Test A postemergence; type: in vivo, Amaranthus retroflexus; conditions: Postemergence
Outline: as §1

[9] = system: barnyardgrass; experiment: Test A preemergence; type: in vivo, Echinochloa crus-galli; conditions: preemergence; for Barnyardgrass plant response rating (0 to 100 scale, 0 is no effect, 100 is complete control): 125 g ai/ha, visual injury approx. 10 days after treatment; for Barnyardgrass plant response rating: 500 g ai/ha, visual injury after approx. 10 days, 0 to 100 scale (0 no effect, 100 complete control)
Outline: as §1

[10] = system: galium; experiment: Test A postemergence; type: in vivo, Galium aparine; conditions: Postemergence
Outline: as §1

[11] = system: corn; experiment: Test A postemergence; type: in vivo, Zea mays
Outline: as §1

[12] = system: foxtail, giant; experiment: Test A postemergence; type: in vivo, Setaria faberii
Outline: as §1

[13] = system: blackgrass; experiment: Test A postemergence; type: in vivo, Alopecurus myosuroides
Outline: as §1

[14] = system: barnyardgrass; experiment: Test A postemergence; type: in vivo, Echinochloa crus-galli
Outline: as §1

[15] = system: rice; experiment: Test B flood; type: in vivo, Oryza sativa; conditions: 250 g ai/ha, visual rating on 0 to 100 scale (0 no effect, 100 complete control), 13 to 15 days
Outline: as §2

[16] = system: ducksalad; experiment: Test B flood; type: in vivo, Heteranthera limosa; conditions: 250 g ai/ha, visual rating on 0 to 100 scale (0 no effect, 100 complete control), 13 to 15 days
Outline: as §2

[17] = system: wheat; experiment: Test A postemergence; type: in vivo, Triticum aestivum; conditions: Postemergence
Outline: as §1

[18] = system: barnyardgrass; experiment: Test B flood; type: in vivo, Echinochloa crus-galli; conditions: 250 g ai/ha, visual rating on 0 to 100 scale (0 no effect, 100 complete control), 13 to 15 days
Outline: as §2

[19] = system: common ragweed; experiment: Test A postemergence; type: in vivo, Ambrosia elation
Outline: as §1

[20] = system: kochia; experiment: Test A preemergence; type: in vivo, Kochia scoparia; conditions: 125 g ai/ha, visual injury approx. 10 days after treatment
Outline: as §1

[21] = 125 g ai/ha, 0 to 100 scale, 0 no effect, 100 complete control
[22] = 500 g ai/ha, 0 to 100 scale (0 no effect, 100 complete control)
[23] = Postemergence, 500 g ai/ha, 0 to 100 scale (0 no effect, 100 complete control)
[24] = postemergence, 125 g ai/ha, about 10 days, visual rating on 0 to 100 scale (0 no effect, 100 complete control)
[25] = Postemergence, 125 g ai/ha, 0 to 100 scale, 0 no effect, 100 complete control

CCCNC(=O)c1cc(CC)n(Cc2cc(C(F)(F)F)nn2C(C)C)n1 [Compound 209]
Pigweed plant response rating (0 to 100 scale) [1]: 0 | Plant response rating, Sedge, Umbrella [2]: 0 | Kochia plant response rating [3, 21]: 0 | Kochia plant response rating [3, 22]: 0 | Italian Ryegrass plant response rating (0 to 100 scale) [4]: 0 | Italian Ryegrass plant response rating [4]: 0 | Foxtail, Giant plant response rating (0 to 100 scale) [5]: 0 | Foxtail, Giant plant response rating [5]: 0 | Common Ragweed plant response rating (0 to 100 scale) [6]: 0 | Common Ragweed plant response rating [6]: 0 | Italian Ryegrass plant response rating [7, 21]: 0 | Italian Ryegrass plant response rating [7, 22]: 0 | Pigweed plant response rating [8, 21]: 0 | Pigweed plant response rating [8, 22]: 0 | Barnyardgrass plant response rating (0 to 100 scale, 0 is no effect, 100 is complete control) [9]: 0 | Barnyardgrass plant response rating [9]: 0 | Galium plant response rating [10, 21]: 0 | Galium plant response rating [10, 22]: 0 | Corn plant response rating [11, 23]: 0 | Corn plant response rating [11, 24]: 0 | Foxtail, Giant plant response rating [12, 23]: 0 | Foxtail, Giant plant response rating [12, 24]: 0 | Blackgrass plant response rating [13, 23]: 0 | Blackgrass plant response rating [13, 24]: 0 | Barnyardgrass plant response rating [14, 23]: 0 | Barnyardgrass plant response rating [14, 24]: 0 | Plant response rating, Rice [15]: 0 | Plant response rating, Ducksalad [16]: 0 | Wheat plant response rating [17, 21]: 0 | Wheat plant response rating [17, 22]: 0 | Plant response rating, Barnyardgrass [18]: 0 | Common Ragweed plant response rating [19, 23]: 0 | Common Ragweed plant response rating [19, 24]: 0 | Kochia plant response rating (0 to 100 scale) [20]: 0

CCc1cc(C(=O)NC(C)C)nn1Cc1cc(C(F)(F)F)nn1C(C)C [Compound 210]
Pigweed plant response rating (0 to 100 scale) [1]: 0 | Plant response rating, Sedge, Umbrella [2]: 0 | Kochia plant response rating [3, 21]: 10 | Kochia plant response rating [3, 22]: 20 | Italian Ryegrass plant response rating (0 to 100 scale) [4]: 0 | Italian Ryegrass plant response rating [4]: 0 | Foxtail, Giant plant response rating (0 to 100 scale) [5]: 0 | Foxtail, Giant plant response rating [5]: 0 | Common Ragweed plant response rating (0 to 100 scale) [6]: 0 | Common Ragweed plant response rating [6]: 0 | Italian Ryegrass plant response rating [7, 21]: 0 | Italian Ryegrass plant response rating [7, 22]: 0 | Pigweed plant response rating [8, 21]: 0 | Pigweed plant response rating [8, 22]: 20 | Barnyardgrass plant response rating (0 to 100 scale, 0 is no effect, 100 is complete control) [9]: 0 | Barnyardgrass plant response rating [9]: 0 | Galium plant response rating [10, 21]: 0 | Galium plant response rating [10, 22]: 20 | Corn plant response rating [11, 25]: 0 | Corn plant response rating [11, 23]: 0 | Foxtail, Giant plant response rating [12, 25]: 0 | Foxtail, Giant plant response rating [12, 23]: 0 | Blackgrass plant response rating [13, 25]: 0 | Blackgrass plant response rating [13, 23]: 0 | Barnyardgrass plant response rating [14, 25]: 0 | Barnyardgrass plant response rating [14, 23]: 0 | Plant response rating, Rice [15]: 0 | Plant response rating, Ducksalad [16]: 0 | Wheat plant response rating [17, 21]: 0 | Wheat plant response rating [17, 22]: 0 | Plant response rating, Barnyardgrass [18]: 0 | Common Ragweed plant response rating [19, 25]: 0 | Common Ragweed plant response rating [19, 23]: 0 | Kochia plant response rating (0 to 100 scale) [20]: 0
